Laboratory results published in PMC3078936 (PLoS ONE, 2011).

Biological target: T1, DYNLL1 (Homo sapiens, UniProt P63167)
T1 construct: 6xHis (N); made in house; host or cells: E. coli BL21(DE3)Star
Experiment: Isothermal titration calorimetry of peptide/protein binding to DYNLL1
Details: PBS + 3 mM 2-mercaptoethanol pH 7.4, 299 K; for ΔH: ITC binding enthalpy; for -TΔS: ITC entropy term; for Kd: ITC, 15 µM DYNLL1 in the cell, A + B to AB model, dimeric peptides reach the dynamic range limit of ITC
Method: Binding parameters of the in vitro evolved Ac-[…] and naturally evolved Ac-DKSTQTD consensus peptides were determined by isothermal titration calorimetry (ITC). Synthetic peptides were used and N-terminal acetylation was applied to better mimic a non-terminal peptide motif by avoiding the positively charged N-terminus. In order to elucidate the particular contribution of Val-5 to the binding affinity, several control peptides were produced. The in vitro evolved Val-5 was replaced with a glycine (Gly-5) to assess side chain function. In a further truncated variant the entire amino acid residue was replaced with an acetate group (Ac-5) to assess the function of the amide group at position −5. The same variations of Val-5, Gly-5 or Ac-5 were also introduced in the framework of the naturally evolved consensus peptide. DYNNL1 binding of all six variants was analyzed by ITC. In all measurements the stoichiometry of binding was 1∶1 (2 peptides binding to one homodimer DYNNL1). The binding was enthalpy-driven and was accompanied with unfavorable entropy change. Ac-5 versions of both the natural and the in vitro evolved consensus peptide had binding affinities in the micromolar range. Replacing the acetyl group with Gly-5 led to a tenfold affinity increase with both peptides.
All peptides and DYNLL1 were dialyzed overnight in PBS buffer supplemented with 3 mM 2-mercaptoethanol (pH 7.4). A typical binding experiment involved 15 µM DYNLL1 in the cell and 30–40 injections varying between of 3–5 µl peptide solution. For each experiment the thermodynamic parameters were determined at 299 K. We used a VP-ITC instrument from Microcal and the data were fitted by the software package Origin 5.0 (OriginLab) using the simple A + B to AB binding model. The signal from an initial 2 µl injection was eliminated. The equilibration time between injections was 900 sec.

T1 sequence (P63167 whole entry): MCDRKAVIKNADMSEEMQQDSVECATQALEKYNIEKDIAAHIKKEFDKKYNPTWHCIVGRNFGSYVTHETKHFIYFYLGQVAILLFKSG

| Substance | ΔH [kcal/mol] | -TΔS [kcal/mol] | Kd [nM] |
| --- | --- | --- | --- |
| dimeric-GSGDKSTQTD [recombinant GCN4 leucine zipper-fused, dimerized Gly-5 natural consensus peptide] | -18.2 | <7.03 | < 7 |
| dimeric-GSGSRGTQTE [recombinant GCN4 leucine zipper-fused, dimerized Gly-5 in vitro evolved peptide] | -16.6 | <4.92 | < 3 |
| dimeric-GSVDKSTQTD [recombinant GCN4 leucine zipper-fused, dimerized Val-5 natural consensus peptide] | -21 | <10 | < 9 |
| dimeric-GSVSRGTQTE [recombinant GCN4 leucine zipper-fused, dimerized in vitro evolved consensus peptide] | -15.5 | <4.21 | < 7 |
